Reference: ChEMBL document CHEMBL3885881, “DrugMatrix”

Organism: Rattus norvegicus
Experiment: DrugMatrix - Regimen: Daily Repeat
Format: toxicity, organism-based, Sprague-Dawley
Design: regimen Daily Repeat, gender Male, age 6-8 weeks
Settings: in vivo, po, route oral GAVAGE; for BASOPHIL / EOSINOPHIL / ERYTHROCYTE COUNT / HEMATOCRIT / HEMOGLOBIN / LEUKOCYTE COUNT / LYMPHOCYTE / MEAN CORPUSCULAR HEMOGLOBIN / MEAN CORPUSCULAR HEMOGLOBIN CONCENTRATION / MEAN CORPUSCULAR VOLUME / MONOCYTE / NEUTROPHIL / PLATELET COUNT / ABSOLUTE BASOPHIL / ABSOLUTE EOSINOPHIL / ABSOLUTE LYMPHOCYTE / ABSOLUTE MONOCYTE / ABSOLUTE SEGMENTED NEUTROPHIL / NUCLEATED RED BLOOD CELLS: tissue Blood; for ALANINE AMINOTRANSFERASE / ALBUMIN / ALKALINE PHOSPHATASE / ASPARTATE AMINOTRANSFERASE / BLOOD UREA NITROGEN / CARBON DIOXIDE / CHLORIDE / CHOLESTEROL / CREATINE PHOSPHOKINASE / CREATININE / GLUCOSE / LACTATE DEHYDROGENASE / LIPASE / PHOSPHORUS / POTASSIUM / SODIUM / TOTAL BILIRUBIN / TOTAL PROTEIN / URIC ACID: tissue Plasma
[1] = 0 mg/kg, 72 h, dose level Control, time 3 day, vehicle .5 % CMC
[2] = 0 mg/kg, 120 h, dose level Control, time 5 day, vehicle .5 % CMC
[3] = 1200 mg/kg, 72 h, dose level High, time 3 day, vehicle .5 % CMC
[4] = 1200 mg/kg, 120 h, dose level High, time 5 day, vehicle .5 % CMC
[5] = 739 mg/kg, 72 h, dose level High, time 3 day, vehicle 100 % WATER
[6] = 739 mg/kg, 120 h, dose level High, time 5 day, vehicle 100 % WATER

## CCCCC1=NC2(CCCC2)C(=O)N1Cc1ccc(-c2ccccc2-c2nnn[nH]2)cc1 [IRBESARTAN]
[1]
  BASOPHIL: 0.17%
  EOSINOPHIL: 0.83%
  ERYTHROCYTE COUNT: 7.2 x10E6/uL
  HEMATOCRIT: 43.13%
  HEMOGLOBIN: 14.63 G/DL
  LEUKOCYTE COUNT: 9.05 x10E3/uL
  LYMPHOCYTE: 75.17%
  MEAN CORPUSCULAR HEMOGLOBIN: 20.35 pg
  MEAN CORPUSCULAR HEMOGLOBIN CONCENTRATION: 33.95 G/DL
  MEAN CORPUSCULAR VOLUME: 59.93 fL
  MONOCYTE: 2.83%
  NEUTROPHIL: 21.17%
  PLATELET COUNT: 1093.17 x10E3/uL
  ALANINE AMINOTRANSFERASE: 49.17 u/L
  ALBUMIN: 4.33 G/DL
  ALKALINE PHOSPHATASE: 366.5 u/L
  ASPARTATE AMINOTRANSFERASE: 86.33 u/L
  BLOOD UREA NITROGEN: 17 mg/dL
  CARBON DIOXIDE: 24.17 mmol/L
  CHLORIDE: 102.83 MEQ/L
  CHOLESTEROL: 78.33 mg/dL
  CREATINE PHOSPHOKINASE: 320.83 u/L
  CREATININE: 0.3 mg/dL
  GLUCOSE: 140.83 mg/dL
  LACTATE DEHYDROGENASE: 210 u/L
  LIPASE: 9.33 u/L
  PHOSPHORUS: 9.12 mg/dL
  POTASSIUM: 5.65 MEQ/L
  SODIUM: 144.17 MEQ/L
  TOTAL BILIRUBIN: 0.1 mg/dL
  TOTAL PROTEIN: 6.3 G/DL
  URIC ACID: 1.03 mg/dL
[2]
  BASOPHIL: 0.17%
  EOSINOPHIL: 1%
  ERYTHROCYTE COUNT: 7.02 x10E6/uL
  HEMATOCRIT: 43.12%
  HEMOGLOBIN: 14.18 G/DL
  LEUKOCYTE COUNT: 9.63 x10E3/uL
  LYMPHOCYTE: 72%
  MEAN CORPUSCULAR HEMOGLOBIN: 20.25 pg
  MEAN CORPUSCULAR HEMOGLOBIN CONCENTRATION: 32.95 G/DL
  MEAN CORPUSCULAR VOLUME: 61.43 fL
  MONOCYTE: 2.67%
  NEUTROPHIL: 24.5%
  PLATELET COUNT: 1028.5 x10E3/uL
  ALANINE AMINOTRANSFERASE: 42.5 u/L
  ALBUMIN: 4.2 G/DL
  ALKALINE PHOSPHATASE: 300.33 u/L
  ASPARTATE AMINOTRANSFERASE: 87.67 u/L
  BLOOD UREA NITROGEN: 17 mg/dL
  CARBON DIOXIDE: 24.33 mmol/L
  CHLORIDE: 99 MEQ/L
  CHOLESTEROL: 70.67 mg/dL
  CREATINE PHOSPHOKINASE: 891.33 u/L
  CREATININE: 0.3 mg/dL
  GLUCOSE: 139.67 mg/dL
  LACTATE DEHYDROGENASE: 289.83 u/L
  LIPASE: 8.83 u/L
  PHOSPHORUS: 9.5 mg/dL
  POTASSIUM: 5.55 MEQ/L
  SODIUM: 139 MEQ/L
  TOTAL BILIRUBIN: 0.0833 mg/dL
  TOTAL PROTEIN: 6.1 G/DL
  URIC ACID: 0.98 mg/dL
[3]
  BASOPHIL: 0.33%
  EOSINOPHIL: 1%
  ERYTHROCYTE COUNT: 7.31 x10E6/uL
  HEMATOCRIT: 43.7%
  HEMOGLOBIN: 14.73 G/DL
  LEUKOCYTE COUNT: 11.5 x10E3/uL
  LYMPHOCYTE: 81.67%
  MEAN CORPUSCULAR HEMOGLOBIN: 20.17 pg
  MEAN CORPUSCULAR HEMOGLOBIN CONCENTRATION: 33.73 G/DL
  MEAN CORPUSCULAR VOLUME: 59.8 fL
  MONOCYTE: 2%
  NEUTROPHIL: 14.67%
  PLATELET COUNT: 1173.33 x10E3/uL
  ALANINE AMINOTRANSFERASE: 46 u/L
  ALBUMIN: 4.67 G/DL
  ALKALINE PHOSPHATASE: 305.33 u/L
  ASPARTATE AMINOTRANSFERASE: 75 u/L
  BLOOD UREA NITROGEN: 17.67 mg/dL
  CARBON DIOXIDE: 28.33 mmol/L
  CHLORIDE: 103.33 MEQ/L
  CHOLESTEROL: 73 mg/dL
  CREATINE PHOSPHOKINASE: 219 u/L
  CREATININE: 0.3 mg/dL
  GLUCOSE: 133.33 mg/dL
  LACTATE DEHYDROGENASE: 300.67 u/L
  LIPASE: 9.33 u/L
  PHOSPHORUS: 9.03 mg/dL
  POTASSIUM: 5.67 MEQ/L
  SODIUM: 146 MEQ/L
  TOTAL BILIRUBIN: 0.1 mg/dL
  TOTAL PROTEIN: 6.67 G/DL
  URIC ACID: 1.23 mg/dL
[4]
  BASOPHIL: 0.33%
  EOSINOPHIL: 1%
  ERYTHROCYTE COUNT: 7.01 x10E6/uL
  HEMATOCRIT: 42.37%
  HEMOGLOBIN: 14.23 G/DL
  LEUKOCYTE COUNT: 11.4 x10E3/uL
  LYMPHOCYTE: 79.67%
  MEAN CORPUSCULAR HEMOGLOBIN: 20.33 pg
  MEAN CORPUSCULAR HEMOGLOBIN CONCENTRATION: 33.57 G/DL
  MEAN CORPUSCULAR VOLUME: 60.47 fL
  MONOCYTE: 2%
  NEUTROPHIL: 17.33%
  PLATELET COUNT: 1226.33 x10E3/uL
  ALANINE AMINOTRANSFERASE: 44.67 u/L
  ALBUMIN: 4.23 G/DL
  ALKALINE PHOSPHATASE: 299.5 u/L
  ASPARTATE AMINOTRANSFERASE: 74.33 u/L
  BLOOD UREA NITROGEN: 18.67 mg/dL
  CARBON DIOXIDE: 20 mmol/L
  CHLORIDE: 98.33 MEQ/L
  CHOLESTEROL: 74 mg/dL
  CREATINE PHOSPHOKINASE: 216.33 u/L
  CREATININE: 0.27 mg/dL
  GLUCOSE: 136 mg/dL
  LACTATE DEHYDROGENASE: 197.33 u/L
  LIPASE: 8.67 u/L
  PHOSPHORUS: 7.83 mg/dL
  POTASSIUM: 5.6 MEQ/L
  SODIUM: 138 MEQ/L
  TOTAL BILIRUBIN: 0.1 mg/dL
  TOTAL PROTEIN: 6.17 G/DL
  URIC ACID: 0.93 mg/dL

## C[C@H]1COc2c(N3CCN(C)CC3)c(F)cc3c(=O)c(C(=O)O)cn1c23.C[C@H]1COc2c(N3CCN(C)CC3)c(F)cc3c(=O)c(C(=O)O)cn1c23.O [LEVOFLOXACIN]
[5]
  ABSOLUTE BASOPHIL: 0 CELLS/uL
  ABSOLUTE EOSINOPHIL: 60.67 CELLS/uL
  ABSOLUTE LYMPHOCYTE: 15481 CELLS/uL
  ABSOLUTE MONOCYTE: 289.33 CELLS/uL
  ABSOLUTE SEGMENTED NEUTROPHIL: 1169 CELLS/uL
  BASOPHIL: 0%
  EOSINOPHIL: 0.33%
  ERYTHROCYTE COUNT: 5.52 x10E6/uL
  HEMATOCRIT: 35.23%
  HEMOGLOBIN: 13.27 G/DL
  LEUKOCYTE COUNT: 17 x10E3/uL
  LYMPHOCYTE: 91%
  MEAN CORPUSCULAR HEMOGLOBIN: 24.03 pg
  MEAN CORPUSCULAR HEMOGLOBIN CONCENTRATION: 37.67 G/DL
  MEAN CORPUSCULAR VOLUME: 63.8 fL
  MONOCYTE: 1.67%
  NEUTROPHIL: 7%
  NUCLEATED RED BLOOD CELLS: 0 /100WBC
  PLATELET COUNT: 1423.67 x10E3/uL
  ALANINE AMINOTRANSFERASE: 46.33 u/L
  ALBUMIN: 4.1 G/DL
  ALKALINE PHOSPHATASE: 308 u/L
  ASPARTATE AMINOTRANSFERASE: 72.67 u/L
  BLOOD UREA NITROGEN: 16.33 mg/dL
  CARBON DIOXIDE: 26.67 mmol/L
  CHLORIDE: 104.33 MEQ/L
  CHOLESTEROL: 82.33 mg/dL
  CREATINE PHOSPHOKINASE: 201.67 u/L
  CREATININE: 0.14 mg/dL
  GLUCOSE: 154.33 mg/dL
  LACTATE DEHYDROGENASE: 124 u/L
  LIPASE: 8.67 u/L
  PHOSPHORUS: 11.47 mg/dL
  POTASSIUM: 6.3 MEQ/L
  SODIUM: 146.37 MEQ/L
  TOTAL BILIRUBIN: 0.17 mg/dL
  TOTAL PROTEIN: 5.97 G/DL
  URIC ACID: 1.7 mg/dL
[6]
  ABSOLUTE BASOPHIL: 0 CELLS/uL
  ABSOLUTE EOSINOPHIL: 0 CELLS/uL
  ABSOLUTE LYMPHOCYTE: 15118 CELLS/uL
  ABSOLUTE MONOCYTE: 376 CELLS/uL
  ABSOLUTE SEGMENTED NEUTROPHIL: 706 CELLS/uL
  BASOPHIL: 0%
  EOSINOPHIL: 0%
  ERYTHROCYTE COUNT: 6.32 x10E6/uL
  HEMATOCRIT: 38.53%
  HEMOGLOBIN: 14.33 G/DL
  LEUKOCYTE COUNT: 16.2 x10E3/uL
  LYMPHOCYTE: 93.33%
  MEAN CORPUSCULAR HEMOGLOBIN: 22.7 pg
  MEAN CORPUSCULAR HEMOGLOBIN CONCENTRATION: 37.2 G/DL
  MEAN CORPUSCULAR VOLUME: 61.03 fL
  MONOCYTE: 2.33%
  NEUTROPHIL: 4.33%
  NUCLEATED RED BLOOD CELLS: 0.33 /100WBC
  PLATELET COUNT: 1446 x10E3/uL
  ALANINE AMINOTRANSFERASE: 51.67 u/L
  ALBUMIN: 4.27 G/DL
  ALKALINE PHOSPHATASE: 400 u/L
  ASPARTATE AMINOTRANSFERASE: 69.33 u/L
  BLOOD UREA NITROGEN: 16.33 mg/dL
  CARBON DIOXIDE: 25.67 mmol/L
  CHLORIDE: 105.33 MEQ/L
  CHOLESTEROL: 69.67 mg/dL
  CREATINE PHOSPHOKINASE: 212 u/L
  CREATININE: 0.19 mg/dL
  GLUCOSE: 191.33 mg/dL
  LACTATE DEHYDROGENASE: 130.33 u/L
  LIPASE: 9 u/L
  PHOSPHORUS: 14.27 mg/dL
  POTASSIUM: 6.6 MEQ/L
  SODIUM: 147.87 MEQ/L
  TOTAL BILIRUBIN: 0.17 mg/dL
  TOTAL PROTEIN: 6.23 G/DL
  URIC ACID: 2.37 mg/dL
